# Laboratory results: a melting point compilation (Tetko et al.; mined from patent text by program, amines drawn as free bases though some values may be those of a salt)
row,melting point,Compound
1,175 to 176 °C,CCOc1ncc(S(C)(=O)=O)cc1C(=O)O
2,129 to 130 °C,ONC(=S)C=Cc1cccc2ccccc12
3,170 °C,Oc1ccc(N2CCN(c3nccs3)CC2)cc1
4,195 to 197 °C,O=C1N(Cc2ccccn2)c2cccc(-c3ccoc3)c2C12COc1cc3c(cc12)CCO3 (configuration not stated)
5,143 to 145 °C,CCCCCCC1c2cc(CBr)ccc2-c2ccc(CBr)cc21
6,92 to 93 °C,Cc1oc(-c2ccccc2)nc1CCC(=O)c1ccc(CCC=O)cc1
7,154 °C,CN(C)n1c(=O)c2ccccc2n(C)c1=O
8,229 to 233 °C,Cc1csc2c1S(=O)(=O)N(C)C(C(=O)Nc1cccccc1=O)=C2O
9,52 to 53 °C,CCC(=O)c1ccc(SC)cn1
10,> 200 °C,Cc1nc(N)c(C#N)c(N2CCc3ccccc3CC2)n1
11,148 °C,O=[N+]([O-])c1cccc2c(CO)ccnc12
12,182 to 184 °C,CC(C)Nc1nc2c(F)c(F)c(F)cc2[nH]1
13,112 °C,COc1c2c(nc3ccccc13)CCNCC2
14,187 to 188 °C,CC(C)CC1(C(CCN2C(=O)c3ccc(N)cc3C2=O)C(=O)NO)CCN(CCc2ccccc2)C1=O (configuration not stated)
15,133 to 135 °C,CC(C)Cc1ccc2sc3cc(CC(=O)O)ccc3c2c1
16,268 to 270 °C,Nc1ccc2c(=O)n3c(nc2c1)C(=Cc1ccccc1)CC3
17,160 to 161 °C,O=C(N1CCN(c2ccccc2)CC1)N1CC(Oc2ccc(Br)cc2)C1
18,142 to 144 °C,CC(=O)OC1CSC(Oc2cc(-c3ccnc(F)c3)cnc2F)C(OC(C)=O)C1OC(C)=O (configuration not stated)
19,83 to 87 °C,CCOC(=O)C(Cc1cn(C)c2c(Cl)cccc12)(NC=O)C(=O)OCC
20,94 to 95 °C,CCCCOCCOC(=O)C(=O)Nc1nc(-c2ccccc2)cs1
21,219 to 225 °C,Cc1ccc([N+](=O)[O-])c2[nH]ccc(=O)c12
22,128 to 132 °C,N#CC(O)C(Cc1ccccc1)N1C(=O)c2ccccc2C1=O (configuration not stated)
23,137 to 139 °C,O=C(OCc1ccccc1)N1CCC2(CC1)CC(=O)N(OC[N+](=O)[O-])C2=O
24,43.2 to 43.4 °C,CCCCCCCCCCCC(=O)c1ccc(-c2ccc(OCC(C)OC(=O)CCCCCC)c(Cl)c2)cc1 (configuration not stated)
25,198 to 200 °C,COc1ccc(C(=O)O)cc1Nc1ccccc1

row,Compound,melting point
1,CN1C=CCC2C1N2S(=O)(=O)c1ccc(N)cc1 (configuration not stated),188 to 190 °C
2,O=C1O[C@@H]2C[C@@]1(O)c1cc(-c3ccccc3)sc1[C@H]2O,168 to 173 °C
